From US4352811A, “3-(1-Substituted-4-piperidyl)-1,2-benzisoxazoles” (Hoechst-Roussel Pharmaceuticals Inc., priority 1981, dated 1982) come the findings set out here.

In the test the test system is apomorphine climbing. Kind of test: Neuroleptic activity in the climbing mice assay (apomorphine-induced climbing). The test is classed as in vivo, mice (CK-1 male). The settings on record: Mus musculus, ip, intraperitoneal 30 min before apomorphine 1.5 mg/kg s.c., climbing scored at 10, 20 and 30 min, linear regression. As to the method: The subject CK-1 male mice (23-27 grams) are group-housed under standard laboratory conditions. The mice are individually placed in wire mesh stick cages (4"×4" by 10") and are allowed one hour for adaptation and exploration of the new environment.
For evaluation of climbing, 3 readings are taken at 10, 20 and 30 minutes after apomorphine administration according to the following scale: […]
Mice consistently climbing before the injection of apormorphine will be discarded.
With full-developed apomorphine climbing, the animals are hanging onto the cage walls, rather motionless, over longer periods of time. By contrast, climbs due to mere motor stimulation usually only last a few seconds.
The climbing scores are individually totaled (maximal score: 6 per mouse over 3 readings) and the total score of the control group (vehicle intraperitoneally--apomorphine subcutaneously) is set to 100%.

Setting [1] is: read-out: NEUROLEPTIC ACTIVITY (ED50 mg/kg).

Where a name gives a salt, the structure may show the parent alone. Read-outs that look alike come from different tables or passages of the source.

On to `Cl.O=C(CCCN1CCC(c2noc3cc(Cl)ccc23)CC1)c1ccc(F)cc1` [3-[1-(4-Fluorobenzoylpropyl)-4-piperidyl]-6-chloro-1,2-benzisoxazole hydrochloride], for which the ED50 under setting [1] amounted to 0.27 mg/kg.

Regarding `Fc1ccc2c(CCCN3CCC(c4noc5ccc(F)cc45)CC3)noc2c1` [3-[1-(6-Fluoro-1,2-benzisoxazol-3-propyl)-4-piperidyl]-5-fluoro-1,2-benzisoxazole hydrochloride], the ED50 under setting [1] worked out at 3.4 mg/kg.

In the case of `COc1ccc2onc(C3CCN(CCCc4noc5cc(F)ccc45)CC3)c2c1` [3-[1-(6-Fluoro-1,2-benzisoxazole-3-propyl)-4-piperidyl]-5-methoxy-1,2-benzisoxazole hydrobromide], the ED50 under setting [1] stood at 7.23 mg/kg.

Turning to `O=c1[nH]c2ccccc2n1CCCN1CCC(c2noc3ccccc23)CC1` [3-{1,3-dihydro-2-oxo-2H-benzmidazol-1-ylpropyl]-4-piperidyl}-1,2-benzisoxazole], under setting [1], the ED50 was determined as 0.36 mg/kg.

For `Br.O=c1[nH]c2ccccc2n1CCN1CCC(c2noc3ccccc23)CC1` [3-{1-[1,3-Dihydro-2-oxo-2H-benzimidazol-1-ylethyl]-4-piperidyl}1,2-benzisoxazole hydrobromide], the ED50 under setting [1] worked out at 7.7 mg/kg.

On to `Fc1ccc(C(CCCN2CCC(c3noc4ccc(F)cc34)CC2)c2ccc(F)cc2)cc1` [3-{1-[4,4-bis-Fluorophenyl)-1-butyl]-4-piperidyl}-5-fluoro-1,2-benzisoxazole hydrochloride], for which, under setting [1], the ED50 worked out at 1.6 mg/kg.

For `Cc1[nH]c2ccccc2c1CCCN1CCC(c2noc3cc(F)ccc23)CC1` [3-{3-[4-(6-Fluoro-1,2-benzisoxazol-3-yl)piperidyl]propyl}-2-methylindole], the ED50 under setting [1] came to 0.16 mg/kg.

For the compound `Cl.Fc1ccc(C(CCCN2CCC(c3noc4cc(Cl)ccc34)CC2)c2ccc(F)cc2)cc1` [6-Chloro-3{1-[4,4-bis(4-fluorophenyl)-1-butyl]-4-piperidyl}-1,2-benzisoxazole hydrochloride], the ED50 under setting [1] worked out at 6.4 mg/kg.

Regarding `Fc1ccc(C(CCCN2CCC(c3noc4cc(F)ccc34)CC2)c2ccc(F)cc2)cc1` [6-Fluoro-3-{1-[4,4-bis(4-fluorophenyl)-1-butyl]-4-piperidyl]-1,2-benzisoxable hydrobromide], under setting [1], the ED50 is 0.58 mg/kg.

Take `O=C(CCCN1CCC(O)(c2ccc(Cl)cc2)CC1)c1ccc(F)cc1` [haloperidol, reference compound]: under “read-out: N[…] (ED50 mg/kg)”, the ED50 is 0.11 mg/kg.

Turning to `CCN1CCCC1CNC(=O)c1cc(S(N)(=O)=O)ccc1OC` (centres unmarked) [sulpiride, reference compound], the ED50 under setting [1] stood at 14.5 mg/kg.
